Assay results as given in the supplement of paper PMC10307832.

Experiments:
Experiment in all cases: relative viability (nuclei count vs DMSO), 5 days (fraction); higher = more cells survive
[1] = compound: CC(C)S(=O)(=O)C1=CC=CC=C1NC2=NC(=NC(=C2Cl)N)NC3=C(C=C(C=C3)N4CCC(CC4)C(=O)N)OC [HG-5-88-01]
Method in brief: (§1)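 Only plates meeting two conditions passed: control CV below 25% and at least one doubling. Lung cancer cell lines, kept overnight at 37 °C in 1536-well plates, were pinned with five library-drug doses (not always all listed) √10 apart on vehicle-anchored plates and grown 5 days without medium change. A one-step fix, permeabilisation and Hoechst stain preceded 4× imaging and MetaXpress nuclear counting. Viability equals treated-well nuclei divided by vehicle-well nuclei, as the median over plates.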

[2] = compound: C[C@@H]1CN(CC(=O)Nc2ccc3c(c2)Cc2cccc(-c4cc(=O)cc(N5CCOCC5)o4)c2S3)C[C@H](C)O1
Method in brief: as §1

[3] = compound: CCCCCCCCCCCC1=C(O)C(=O)C=C(O)C1=O [Embelin]
Method in brief: as §1

[4] = compound: CC(C)Oc1cc(Nc2nc(N[C@@H](C)c3ccc(F)cn3)ncc2Cl)n[nH]1 [AZ23]
Method in brief: as §1

[5] = compound: Clc1ccc(Nc2nnc(Cc3ccncc3)c3ccccc23)cc1 [Vatalanib]
Method in brief: as §1

| Cell Line | relative viability ([1]; 0.04 µM) | relative viability ([1]; 0.1265 µM) | relative viability ([1]; 0.4 µM) | relative viability ([1]; 1.265 µM) | relative viability ([1]; 4 µM) | relative viability ([2]; 0.1265 µM) | relative viability ([2]; 0.4 µM) | relative viability ([2]; 4 µM) | relative viability ([3]; 0.08 µM) | relative viability ([3]; 0.8 µM) | relative viability ([3]; 2.53 µM) | relative viability ([3]; 8 µM) | relative viability ([4]; 0.01 µM) | relative viability ([4]; 0.03162 µM) | relative viability ([4]; 0.3162 µM) | relative viability ([5]; 0.04 µM) | relative viability ([5]; 0.1265 µM) | relative viability ([5]; 0.4 µM) | relative viability ([5]; 1.265 µM) | relative viability ([5]; 4 µM) | relative viability ([2]; 0.04 µM) |
| --- | --- | --- | --- | --- | --- | --- | --- | --- | --- | --- | --- | --- | --- | --- | --- | --- | --- | --- | --- | --- | --- |
| LCLC-97TM1 | 0.98 | 0.922 | 0.807 | 0.838 | 0.291 | 0.965 | 0.853 | 1.04 | 0.906 | 1.15 | 1.17 | 0.971 | 0.998 | 0.915 | 0.873 | 0.875 | 0.84 | 0.977 | 0.838 | 1.03 |  |
| LCLC-103H | 1.04 | 1.04 | 0.86 | 0.96 | 0.657 | 0.903 | 0.793 | 0.926 | 0.999 | 1.06 | 1.04 | 0.8 | 1.04 | 0.993 | 1.08 | 1.05 | 0.932 | 1.01 | 0.993 | 0.977 | 1.01 |
| LK-2 | 0.976 | 0.994 | 0.962 | 0.582 | 0.789 | 0.923 | 0.979 | 1.1 | 1.1 | 1.07 | 1.25 | 0.856 | 0.802 | 1.14 | 0.959 | 0.952 | 0.863 | 0.889 | 1.01 | 0.995 | 0.848 |
| LOU-NH91 | 0.912 | 0.904 | 0.866 | 0.612 | 0.629 | 0.989 | 0.966 | 0.876 | 1.02 | 1.27 | 0.991 | 0.864 | 0.921 | 1.08 | 1.01 | 0.925 | 0.936 | 0.816 | 0.876 | 0.921 | 0.943 |
| LU99A | 0.963 | 0.958 | 0.873 | 1.02 | 0.907 | 1.05 | 1.15 | 0.975 | 1.08 | 1.07 | 1.08 | 0.948 | 1.04 | 0.998 | 0.941 | 1.03 | 1.02 | 1.06 | 0.951 | 0.923 | 0.86 |
| LXF-289 | 1.04 | 1.03 | 0.976 | 0.974 | 0.986 | 1.01 | 1.04 | 0.976 | 1.04 | 1.04 | 1.01 | 1.09 | 1.17 | 1.04 | 1.02 | 1.05 | 0.935 | 1.02 | 0.958 | 1 | 0.974 |
| NCI-H23 | 1.03 | 0.993 | 0.959 | 0.824 | 0.392 | 0.923 | 0.943 | 0.96 | 0.987 | 1.07 | 1.03 | 0.705 |  | 1.07 | 0.887 | 0.948 | 0.833 | 1.04 | 0.961 | 0.853 | 1.08 |
| NCI-H322M | 0.811 | 0.872 | 0.876 | 0.494 | 0.718 | 0.947 | 0.961 | 0.827 | 0.987 | 0.996 | 1.03 | 0.915 | 0.695 | 0.974 | 1.07 | 0.938 | 0.946 | 0.936 | 0.904 | 0.917 | 0.823 |
